Numbering of substitutions follows the chain as printed.
Key:
[1] = molecular target: T1, human 5-HT3A receptor I180A mutant (Homo sapiens, UniProt P46098, V202A); assay: Two-electrode voltage clamp, I5-HT inhibition, I180A mutant; type: cell-based
T1 sequence (P46098 24-478 V202A): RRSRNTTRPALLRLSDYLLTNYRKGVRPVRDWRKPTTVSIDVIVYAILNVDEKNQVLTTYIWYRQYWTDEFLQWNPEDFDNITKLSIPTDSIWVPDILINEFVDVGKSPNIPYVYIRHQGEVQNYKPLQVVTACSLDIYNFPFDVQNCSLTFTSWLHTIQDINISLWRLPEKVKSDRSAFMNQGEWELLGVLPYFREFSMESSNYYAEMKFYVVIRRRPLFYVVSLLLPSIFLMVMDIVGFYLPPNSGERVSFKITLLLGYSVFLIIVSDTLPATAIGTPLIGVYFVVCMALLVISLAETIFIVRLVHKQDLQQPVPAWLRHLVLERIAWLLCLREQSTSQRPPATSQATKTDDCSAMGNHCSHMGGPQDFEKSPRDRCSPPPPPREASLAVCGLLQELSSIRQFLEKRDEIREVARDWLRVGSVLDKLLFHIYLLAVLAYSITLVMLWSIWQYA
Experimental: (§1) Human 5-HT3A receptor cDNA was linearized using restriction enzyme XhoI. In vitro transcription was performed using an mMESSAGE mMACHINE T7 Transcription Kit (Thermo Fisher Scientific, Waltham, MA, USA). The final mRNA product was dissolved in 1X Diethyl Pyrocarbonate (RNase-free water) at a final concentration of 1 μg/μL and kept in a deep-freezer at −80 °C until used.
Xenopus oocytes were used in this study as cells for expression of human 5-HT3A receptor. All female frogs used in this experiment were obtained from the Korean Xenopus Resource Center for Research (KXRCR000001). Xenopus management followed the guideline of Chonnam National University institution guidelines (CNU IACUC-YB-2016-07, July 2016). Xenopus oocytes were extracted during ice incubation state and isolated as single oocytes using collagenase II (2 mg/mL) in OR2 buffer (82.5 mM NaCl, 2 mM KCl, 1 mM MgCl2, 5 mM HEPES, pH 7.4). Isolated oocytes were incubated with ND96 incubation buffer (96 mM NaCl, 2 mM KCl, 1 mM MgCl2, 1.8 mM CaCl2, 5 mM HEPES, 2.5 mM sodium pyruvate, and […], pH 7.4) at 18 °C until the experiment was performed. Human 5-HT3A receptor mRNA was injected into oocytes using a nanoinjector (Drummond Scientific, Broomall, PA, USA) with a mineral-filled 10 μL microdispenser (VWR, Piscataway, NJ, USA).
To confirm the KAE activity on the human 5-HT3A receptor, a two-electrode voltage clamp (OC-725C; Warner Instruments, Hamden, CT, USA) with a Digitata 1550A was used. For the experiment, induced-inward current was converted to digital data with pClamp 10 software (Axon Instruments, Union City, CA, USA). […]
(§2) The voltage relationship experiment for confirming the relationship between induce-inward current and voltage, the voltage was varied from −80 mV to +60 mV using a ramp protocol. […] All recording data were analyzed using Clampfit 9.0 (Molecular Devices, San Jose, CA, USA). […]
(§3) All presented experiments were performed at least three times for scientific verification. […] Induced-inward current data were analyzed with SigmaPlot 10.0 software (Systat Software, Inc., San Jose, CA, USA). […]

[2] = molecular target: T2, human 5-HT3A receptor I210A mutant (Homo sapiens, UniProt P46098); assay: Two-electrode voltage clamp, I5-HT inhibition, I210A mutant; type: cell-based; conditions: −80 mV
T2 sequence (P46098 24-478): T1 sequence (P46098 24-478 V202A) with A179V
Experimental: as §1
Xenopus oocytes were used in this study as cells for expression of human 5-HT3A receptor. All female frogs used in this experiment were obtained from the Korean Xenopus Resource Center for Research (KXRCR000001). Xenopus management followed the guideline of Chonnam National University institution guidelines (CNU IACUC-YB-2016-07, July 2016). Xenopus oocytes were extracted during ice incubation state and isolated as single oocytes using collagenase II (2 mg/mL) in OR2 buffer (82.5 mM NaCl, 2 mM KCl, 1 mM MgCl2, 5 mM HEPES, pH 7.4). […]
as §2, §3

O=c1c(O)c(-c2ccc(O)cc2)oc2cc(O)cc(O)c12 [KAE, kaempferol]
IC50 [1]: 45.5 ± 12.9 µM
n (Hill coefficient) ([1]; I180A, −80 mV): 1.8 ± 0.6
Emax ([1]; I180A, −80 mV, read-out: Vmax): 89.5 ± 12.1%
IC50 [2]: 35.4 ± 9.7 µM
n (Hill coefficient) [2]: 1.8 ± 0.5

Source: article PMC8745345, “Hydroxy Pentacyclic Triterpene Acid, Kaempferol, Inhibits the Human 5-Hydroxytryptamine Type 3A Receptor Activity” (International Journal of Molecular Sciences, 2022)
